Tested on: syphilis-associated membranous nephropathy (nephrotic syndrome)
Experiment: Follow-up of syphilis-associated NDNF-positive membranous nephropathy patients treated with antibiotics
Assay type: in vivo, human
Method: Biopsies for diagnosis were evaluated. The diagnosis of MN was confirmed by light microscopy (LM), immunofluorescence (IF) microscopy including PLA2R studies, and electron microscopy (EM). The clinical information was obtained from the accompanying charts. For detection of novel proteins, MS/MS was performed in 250 cases of PLA2R-negative cases (discovery cohort) that included cases used for identification of EXT1/EXT2, NELL1, SEMA3B, PCDH7, and FAT1 (Sethi et al., J. Am. Soc. Nephrol., 30:1123-1136 (2019); Sethi et al., Kid. Int., 97:163-174 (2020); Sethi et al., Kid. Int., 98:1253-1265 (2020); Sethi et al., J. Am. Soc. Nephrol., 32:1249-1261 (2021); and Sethi et al., J. Am. Soc. Nephrol., 33:1033-1044 (2022)). A NDNF polypeptide was detected in 3 cases of PLA2R-negative MN (NDNF-associated MN) by MS/MS. All 3 cases were negative for spectral counts for THSD7A, EXT1/EXT2, NELL1, SEMA3B, HTRA1, CNTN1, NCAM1, PCDH7, and FAT1 while baseline spectral counts for PLA2R were present in 2 of the 3 cases.
Using MS/MS, 14 cases of hepatitis B-associated MN and 5 cases of syphilis-associated MN were screened for MN antigens (validation cohort). Tissue from 4 cases (cases 4-7) of syphilis-associated MN were obtained from Cedars Sinai Medical Center and one case (cases 8-9) from Mayo Clinic. Cases 8 and 9 were from the same patient who was biopsied twice, 3 months apart. […]

penicillin
Repeat kidney biopsy finding after treatment (Case 8, repeat biopsy 3 months later, after complete remission): continued to show membranous nephropathy
Outcome of the nephrotic syndrome after antibiotic treatment (patients with syphilis and NDNF-associated MN, follow-up available in 4 of the 6 cases of syphilis): complete remission

— US20240245712A1, “METHODS AND MATERIALS FOR IDENTIFYING AND TREATING MEMBRANOUS NEPHROPATHY” (Mayo Foundation for Medical Education and Research, priority 2023, published 2024)
